Source: ChEMBL document CHEMBL1201862, “PubChem BioAssay data set” (2004)
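Assay format: 96-well plates, 48-hour exposure. At the GI50, growth is halved.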 The source made the active and inactive calls. Rule as the data show it: active = GI50 up to about 1.1 µM and inactive = higher.

Experiments:
Test in all cases: NCI-60 cell line screen, 48 h
MDA-MB-231 = tested on: MDA-MB-231
SK-MEL-2 = tested on: SK-MEL-2
PC-3 = tested on: PC-3
NCI-H226 = tested on: NCI-H226
SF-268 = tested on: SF-268
UO-31 = tested on: UO-31
A549 = tested on: A549
HL-60 = tested on: HL-60
NCI-H23 = tested on: NCI-H23
Malme-3M = tested on: Malme-3M
OVCAR-3 = tested on: OVCAR-3
EKVX = tested on: EKVX
SK-MEL-28 = tested on: SK-MEL-28
SNB-75 = tested on: SNB-75
HCT-15 = tested on: HCT-15
K562 = tested on: K562
RXF 393 = tested on: RXF 393
OVCAR-8 = tested on: OVCAR-8
NCI-H460 = tested on: NCI-H460
HCT-116 = tested on: HCT-116

| SMILES | GI50 (MDA-MB-231) | GI50 (SK-MEL-2) | GI50 (PC-3) | GI50 (NCI-H226) | GI50 (SF-268) | GI50 (UO-31) | GI50 (A549) | GI50 (HL-60) | GI50 (NCI-H23) | GI50 (Malme-3M) | GI50 (OVCAR-3) | GI50 (EKVX) | GI50 (SK-MEL-28) | GI50 (SNB-75) | GI50 (HCT-15) | GI50 (K562) | GI50 (RXF 393) | GI50 (OVCAR-8) | GI50 (NCI-H460) | GI50 (HCT-116) |
| --- | --- | --- | --- | --- | --- | --- | --- | --- | --- | --- | --- | --- | --- | --- | --- | --- | --- | --- | --- | --- |
| COc1ccc2nc3cc(Cl)ccc3c(NCCCNCCCNc3c4ccc(Cl)cc4nc4ccc(OC)cc34)c2c1 | < 0.01 µM (active) | 0.0404 µM (active) | 0.0241 µM (active) | < 0.01 µM (active) | 0.0111 µM (active) | < 0.0236 µM (active) | 0.0132 µM (active) | 0.0278 µM (active) | 0.0181 µM (active) | 0.0604 µM (active) | 0.162 µM (active) | 0.137 µM (active) | 0.133 µM (active) | 0.0299 µM (active) | 0.0174 µM | < 0.01 µM (active) | 0.224 µM (active) | < 0.01 µM (active) | 0.0102 µM (active) | < 0.01 µM (active) |
| C1CC2CN(CCCN3CCOCC3)C(C1)O2 (stereo not given) | > 100 µM (inactive) | > 100 µM (inactive) | > 100 µM (inactive) | > 100 µM (inactive) | > 100 µM (inactive) | > 100 µM (inactive) | > 100 µM (inactive) | > 100 µM (inactive) | > 100 µM (inactive) | > 100 µM (inactive) | > 100 µM (inactive) | > 100 µM (inactive) | > 100 µM (inactive) | > 100 µM (inactive) | > 100 µM | > 100 µM (inactive) | > 100 µM (inactive) | > 100 µM (inactive) | > 100 µM (inactive) | > 100 µM (inactive) |
| Cc1ccc(S(=O)(=O)Oc2nc3ccccc3nc2OS(=O)(=O)c2ccc(C)cc2)cc1 | > 100 µM (inactive) | > 100 µM (inactive) | > 100 µM (inactive) | > 100 µM (inactive) | > 100 µM (inactive) | > 100 µM (inactive) | > 100 µM (inactive) | 32.3 µM (inactive) | > 100 µM (inactive) | 17 µM (inactive) | > 100 µM (inactive) | > 100 µM (inactive) | 28 µM (inactive) | > 100 µM (inactive) | > 100 µM | 32.4 µM (inactive) | > 100 µM (inactive) | > 100 µM (inactive) | > 100 µM (inactive) | > 100 µM (inactive) |
| Oc1ccc(SCc2cc(O)c(O)c(O)c2)cc1 | 36.4 µM (inactive) | 26.1 µM (inactive) | 40.3 µM (inactive) | 23.7 µM (inactive) | > 100 µM (inactive) | 24.8 µM (inactive) | 49.5 µM (inactive) | 34.4 µM (inactive) | 41.4 µM (inactive) | 61.5 µM (inactive) | 39.4 µM (inactive) | > 100 µM (inactive) | 92.9 µM (inactive) | 46.5 µM (inactive) | 39.9 µM | 13.2 µM (inactive) | 89.3 µM (inactive) | 21.6 µM (inactive) | 19.1 µM (inactive) | 17.1 µM (inactive) |
| NNc1ncc2c(n1)-c1ccccc1OC2 | > 100 µM (inactive) | > 100 µM (inactive) | 47.2 µM (inactive) | 75.2 µM (inactive) | 41.6 µM (inactive) | 41.1 µM (inactive) | 96.2 µM (inactive) | 19.7 µM (inactive) | > 100 µM (inactive) | 51.2 µM (inactive) | 22.2 µM (inactive) | 49.4 µM (inactive) | > 100 µM (inactive) | 35.6 µM (inactive) | 29.9 µM | 50.9 µM (inactive) | > 100 µM (inactive) | 44.4 µM (inactive) | 32.3 µM (inactive) | 36.5 µM (inactive) |
| C=C[C@]1(C)CC(=O)C(C(C)C=O)[C@]12C(=O)Oc1cccc(C)c1C2=O (stereo not given in full) | 17.6 µM (inactive) | 17.1 µM (inactive) | 13.3 µM (inactive) | 15.3 µM (inactive) | 24.1 µM (inactive) | 15.5 µM (inactive) | 18 µM (inactive) | 4 µM (inactive) | 17.1 µM (inactive) | 18 µM (inactive) | 15.9 µM (inactive) | 19.4 µM (inactive) | 15.2 µM (inactive) | 16.4 µM (inactive) | 14.9 µM | 12.9 µM (inactive) | 13.9 µM (inactive) | 16.1 µM (inactive) | 16.6 µM (inactive) | 7.85 µM (inactive) |
| CC(=O)C(=[N+]=[N-])C(=O)N(C)CCC#N | > 10 µM (inactive) | > 10 µM (inactive) | > 10 µM (inactive) | > 10 µM (inactive) | > 10 µM (inactive) | > 10 µM (inactive) | > 10 µM (inactive) | > 10 µM (inactive) | > 10 µM (inactive) | > 10 µM (inactive) | > 10 µM (inactive) | > 10 µM (inactive) | > 10 µM (inactive) | 0.118 µM (active) | > 10 µM | > 10 µM (inactive) | > 10 µM (inactive) | > 10 µM (inactive) | > 10 µM (inactive) | > 10 µM (inactive) |
| O=C1CCCC(=O)N1n1c(Cc2ccc(Cl)cc2)n[nH]c1=O | > 100 µM (inactive) | > 100 µM (inactive) | > 100 µM (inactive) | > 100 µM (inactive) | > 100 µM (inactive) | > 100 µM (inactive) | > 100 µM (inactive) | > 100 µM (inactive) | > 100 µM (inactive) | > 100 µM (inactive) | > 100 µM (inactive) | > 100 µM (inactive) | > 100 µM (inactive) | > 100 µM (inactive) | > 100 µM | > 100 µM (inactive) | > 100 µM (inactive) | > 100 µM (inactive) | > 100 µM (inactive) | > 100 µM (inactive) |
| C/C(=N\c1ccc(N(C)C)cc1)c1ccccc1 | 18.3 µM (inactive) | 11.2 µM (inactive) | 23.4 µM (inactive) | 76.2 µM (inactive) | > 10 µM (inactive) | 17.8 µM (inactive) | 27.9 µM (inactive) | 16.4 µM (inactive) | 21.1 µM (inactive) | 10.9 µM (inactive) | 17.8 µM (inactive) | 72.3 µM (inactive) | 33.7 µM (inactive) | 22.8 µM (inactive) | 18.5 µM | 21.3 µM (inactive) | 5.35 µM (inactive) | 35.4 µM (inactive) | 81.1 µM (inactive) | 16.9 µM (inactive) |
| Nc1ncnc2c1ncn2C1OC(CO)C2OC21 (stereo not given) | > 100 µM (inactive) | > 100 µM (inactive) | > 100 µM (inactive) | > 100 µM (inactive) | > 100 µM (inactive) | > 100 µM (inactive) | > 100 µM (inactive) | > 100 µM (inactive) | > 100 µM (inactive) | > 10 µM (inactive) | > 10 µM (inactive) | > 100 µM (inactive) | > 100 µM (inactive) | > 100 µM (inactive) | > 10 µM | 72.8 µM (inactive) | > 100 µM (inactive) | > 100 µM (inactive) | > 10 µM (inactive) | > 100 µM (inactive) |
